Measured values: US4471131A, “Novel silyl esters of N-phosphonomethylglycine” (Monsanto Company, priority 1983, dated 1984)

Columns and labels:
Experiment in all cases: post-emergence herbicidal activity, greenhouse
Type in all cases: in vivo
[1] = system: Soybean; details: Table III
Method in brief: (§1)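 Injury versus control pans was recorded at about 2 and 4 weeks post-treatment. Treatment was post-emergence: an atomizer spray holding roughly 0.4% by weight emulsifier and enough candidate chemical for the tabulated rates, applied to two-to-three-week-old plants raised in top-soil pans.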

[2] = system: Barnyardgrass
Method in brief: as §1

[3] = system: Sugar Beet; details: Table III
Method in brief: as §1

[4] = system: Morningglory
Method in brief: as §1

[5] = system: Rice; details: Table III
Method in brief: as §1

[6] = system: Quackgrass; details: Table II
Method in brief: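 Injury scores compare treated plants with untreated control pans at roughly 2 and 4 weeks post-spray. Treatment was a single atomizer application, in a solution or suspension with about 0.4% emulsifier by weight, to greenhouse plants aged two to three weeks.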

[7] = system: Hemp Sesbania; details: Table III
Method in brief: as §1

[8] = system: Johnsongrass; details: Table II
Method in brief: as §1

[9] = system: Large Crabgrass; details: Table III
Method in brief: as §1

[10] = 2 WAT, 1.1 kg/h, formulated in anhydrous tetrahydrofuran
[11] = 2 WAT, 5.6 kg/h, formulated in anhydrous tetrahydrofuran
[12] = 2 WAT, .28 kg/h, formulated in anhydrous tetrahydrofuran
[13] = 4 WAT, 1.1 kg/h, formulated in anhydrous tetrahydrofuran
[14] = 4 WAT, 5.6 kg/h, formulated in anhydrous tetrahydrofuran
[15] = 4 WAT, .28 kg/h, formulated in anhydrous tetrahydrofuran
[16] = Table II, 2 WAT, 5.6 kg/h, formulated in anhydrous tetrahydrofuran
[17] = Table II, 2 WAT, 11.2 kg/h, formulated in anhydrous tetrahydrofuran
[18] = Table II, 4 WAT, 5.6 kg/h, formulated in anhydrous tetrahydrofuran
[19] = Table II, 4 WAT, 11.2 kg/h, formulated in anhydrous tetrahydrofuran
[20] = Table III, 2 WAT, 1.1 kg/h, formulated in anhydrous tetrahydrofuran
[21] = Table III, 2 WAT, 5.6 kg/h, formulated in anhydrous tetrahydrofuran
[22] = Table III, 2 WAT, .28 kg/h, formulated in anhydrous tetrahydrofuran
[23] = Table III, 4 WAT, 1.1 kg/h, formulated in anhydrous tetrahydrofuran
[24] = Table III, 4 WAT, 5.6 kg/h, formulated in anhydrous tetrahydrofuran
[25] = Table III, 4 WAT, .28 kg/h, formulated in anhydrous tetrahydrofuran
[26] = 2 WAT, 11.2 kg/h, formulated in anhydrous tetrahydrofuran
[27] = 4 WAT, 11.2 kg/h, formulated in anhydrous tetrahydrofuran

CCCCOC(=O)CNCP(=O)(O)O[Si](c1ccccc1)(c1ccccc1)C(C)(C)C [Ex. 6, Glycine, N--((([(1,1-Dimethylethyl)Diphenylsilyl]Oxy)Hydroxyphosphinyl)methyl)-Butyl Ester]
1 (25-49% inhibition): Plant Response Index (L) ([1]; 2 WAT, 1.1 kg/h) | Plant Response Index (L) [1, 10] | Plant Response Index (L) ([1]; 2 WAT, 5.6 kg/h) | Plant Response Index (L) [1, 12] | Plant Response Index (L) ([1]; 4 WAT, 1.1 kg/h) | Plant Response Index (L) [1, 13] | Plant Response Index (L) ([1]; 4 WAT, 5.6 kg/h) | Plant Response Index (L) [1, 15] | Plant Response Index (K) ([2]; Table II, 2 WAT, 5.6 kg/h) | Plant Response Index (K) [2, 16] | Plant Response Index (K) [2, 17] | Plant Response Index (K) [2, 19] | Plant Response Index (M) ([3]; 2 WAT, 1.1 kg/h) | Plant Response Index (M) [3, 10] | Plant Response Index (M) [3, 11] | Plant Response Index (M) ([3]; 4 WAT, 1.1 kg/h) | Plant Response Index (M) [3, 13] | Plant Response Index (M) [3, 14] | Plant Response Index (D) [4, 16] | Plant Response Index (D) ([4]; Table III, 2 WAT, .28 kg/h) | Plant Response Index (D) [4, 22] | Plant Response Index (D) [4, 25] | Plant Response Index (O) ([5]; 2 WAT, 1.1 kg/h) | Plant Response Index (O) [5, 11] | Plant Response Index (O) ([5]; 4 WAT, 1.1 kg/h) | Plant Response Index (H) ([6]; 2 WAT, 11.2 kg/h) | Plant Response Index (H) [6, 14] | Plant Response Index (R) ([7]; 2 WAT, 1.1 kg/h) | Plant Response Index (R) [7, 10] | Plant Response Index (R) ([7]; 4 WAT, 1.1 kg/h) | Plant Response Index (I) ([8]; 2 WAT, 11.2 kg/h) | Plant Response Index (I) [8, 14] | Plant Response Index (I) [8, 27] | Plant Response Index (T) [9, 12]
3 (75-99% inhibition): Plant Response Index (K) ([2]; Table II, 4 WAT, 11.2 kg/h) | Plant Response Index (K) ([2]; Table III, 2 WAT, 5.6 kg/h) | Plant Response Index (K) ([2]; Table III, 4 WAT, 5.6 kg/h) | Plant Response Index (M) ([3]; 4 WAT, 5.6 kg/h) | Plant Response Index (D) ([4]; Table III, 4 WAT, 5.6 kg/h) | Plant Response Index (O) ([5]; 4 WAT, 5.6 kg/h)
0 (0-24% inhibition): Plant Response Index (L) ([1]; 2 WAT, .28 kg/h) | Plant Response Index (K) [2, 22] | Plant Response Index (K) [2, 25] | Plant Response Index (M) ([3]; 2 WAT, .28 kg/h) | Plant Response Index (M) [3, 12] | Plant Response Index (M) [3, 15] | Plant Response Index (O) [5, 10] | Plant Response Index (O) ([5]; 2 WAT, .28 kg/h) | Plant Response Index (O) [5, 12] | Plant Response Index (O) [5, 13] | Plant Response Index (O) [5, 15] | Plant Response Index (H) ([6]; 2 WAT, 5.6 kg/h) | Plant Response Index (H) [6, 11] | Plant Response Index (H) [6, 26] | Plant Response Index (H) ([6]; 4 WAT, 5.6 kg/h) | Plant Response Index (H) [6, 27] | Plant Response Index (R) [7, 12] | Plant Response Index (R) [7, 13] | Plant Response Index (R) [7, 15] | Plant Response Index (I) ([8]; 2 WAT, 5.6 kg/h) | Plant Response Index (I) [8, 11] | Plant Response Index (I) [8, 26] | Plant Response Index (I) ([8]; 4 WAT, 11.2 kg/h) | Plant Response Index (T) [9, 15]
4 (100% inhibition): Plant Response Index (H) ([6]; 4 WAT, 11.2 kg/h) | Plant Response Index (R) [7, 11] | Plant Response Index (R) [7, 14] | Plant Response Index (T) ([9]; 2 WAT, 1.1 kg/h) | Plant Response Index (T) [9, 10] | Plant Response Index (T) ([9]; 2 WAT, 5.6 kg/h) | Plant Response Index (T) [9, 11] | Plant Response Index (T) ([9]; 2 WAT, .28 kg/h) | Plant Response Index (T) ([9]; 4 WAT, 1.1 kg/h) | Plant Response Index (T) [9, 13] | Plant Response Index (T) ([9]; 4 WAT, 5.6 kg/h) | Plant Response Index (T) [9, 14]
2 (50-74% inhibition): Plant Response Index (L) [1, 11] | Plant Response Index (L) [1, 14] | Plant Response Index (K) ([2]; Table II, 2 WAT, 11.2 kg/h) | Plant Response Index (K) ([2]; Table II, 4 WAT, 5.6 kg/h) | Plant Response Index (K) [2, 18] | Plant Response Index (K) ([2]; Table III, 2 WAT, 1.1 kg/h) | Plant Response Index (K) [2, 20] | Plant Response Index (K) [2, 21] | Plant Response Index (K) ([2]; Table III, 2 WAT, .28 kg/h) | Plant Response Index (K) ([2]; Table III, 4 WAT, 1.1 kg/h) | Plant Response Index (K) [2, 23] | Plant Response Index (K) [2, 24] | Plant Response Index (M) ([3]; 2 WAT, 5.6 kg/h) | Plant Response Index (D) ([4]; Table II, 2 WAT, 5.6 kg/h) | Plant Response Index (D) ([4]; Table II, 2 WAT, 11.2 kg/h) | Plant Response Index (D) [4, 17] | Plant Response Index (D) ([4]; Table II, 4 WAT, 5.6 kg/h) | Plant Response Index (D) [4, 18] | Plant Response Index (D) ([4]; Table II, 4 WAT, 11.2 kg/h) | Plant Response Index (D) [4, 19] | Plant Response Index (D) ([4]; Table III, 2 WAT, 1.1 kg/h) | Plant Response Index (D) [4, 20] | Plant Response Index (D) ([4]; Table III, 2 WAT, 5.6 kg/h) | Plant Response Index (D) [4, 21] | Plant Response Index (D) ([4]; Table III, 4 WAT, 1.1 kg/h) | Plant Response Index (D) [4, 23] | Plant Response Index (D) [4, 24] | Plant Response Index (O) ([5]; 2 WAT, 5.6 kg/h) | Plant Response Index (O) [5, 14] | Plant Response Index (R) ([7]; 2 WAT, 5.6 kg/h) | Plant Response Index (R) ([7]; 4 WAT, 5.6 kg/h) | Plant Response Index (I) ([8]; 4 WAT, 5.6 kg/h)
